This note sets out measurements from patent publication US10047086B2, “Imidazopyridines and imidazopyrazines as LSD1 inhibitors” (Incyte Corporation, priority 2014, dated 2018).

The structures appear in SMILES notation. A value given as a limit tells only on which side of the number the result lay.

The target of this experiment is LSD-1 enzyme (Homo sapiens (Human), UniProt O60341). The experiment is described as follows: LANCE LSD1/KDM1A demethylase assay (LSD1 histone demethylase biochemical assay). The following applies: 1 nM LSD-1 enzyme, 1 hour preincubation at 25° C., 0.4 μM Biotin-labeled Histone H3 peptide substrate. The method, then: LSD1 Histone Demethylase Biochemical Assay
LANCE LSD1/KDM1A demethylase assay-10 μL of 1 nM LSD-1 enzyme (ENZO BML-SE544-0050) in the assay buffer (50 mM Tris, pH 7.5, 0.01% Tween-20, 25 mM NaCl, 5 mM DTT) were preincubated for 1 hour at 25° C. with 0.8 μL compound/DMSO dotted in black 384 well polystyrene plates. […] Reactions were stopped by addition of 10 μL 1× LANCE Detection Buffer (PerkinElmer CR97-100) supplemented with 1.5 nM Eu-anti-unmodified H3K4 Antibody (PerkinElmer TRF0404), and 225 nM LANCE Ultra Streptavidin (PerkinElmer TRF102) along with 0.9 mM Tranylcypromine-HCl (Millipore 616431). After stopping the reactions plates were incubated for 30 minutes and read on a PHERAstar FS plate reader (BMG Labtech).
(In general: TR-FRET usually uses a lanthanide donor and a delayed reading to cut background.)
A word on the IC50: it is the point on the concentration scale where inhibition reaches its midpoint. Consider `CN(C)C1CCN(c2nc(-c3ccc(C#N)cc3)c(-c3ccc4c(c3)CC(O)C4)n3cncc23)CC1` (racemic) [Example 136, 4-[8-[4-(dimethylamino)piperidin-1-yl]-5-(2-hydroxy-2,3-dihydro-1H-inden-5-yl)imidazo[1,5-a]pyrazin-6-yl]benzonitrile], for which the IC50 was not above 50 nM.

With `Cc1ccc(-c2c(-c3ccc(C#N)cc3)cc(OC[C@@H]3CCNC3)c3cncn23)cc1` [Example 1, 4-{5-(4-methylphenyl)-8-[(3R)-pyrrolidin-3-ylmethoxy]imidazo[1,5-a]pyridin-6-yl}benzonitrile], the IC50 was not above 50 nM. Under `Cc1ccc(-c2c(-c3ccc([N+](=O)[O-])cc3)cc(OC[C@@H]3CCNC3)c3cncn23)cc1` [Example 3, 5-(4-methylphenyl)-6-(4-nitrophenyl)-8-[(3R)-pyrrolidin-3-ylmethoxy]imidazo[1,5-a]pyridine] stands not above 50 nM; under `Cc1ccc(-c2c(-c3ccc(C#N)c(F)c3)cc(OC[C@@H]3CCNC3)c3cncn23)cc1` [Example 4, 2-fluoro-4-{5-(4-methylphenyl)-8-[(3R)-pyrrolidin-3-ylmethoxy]imidazo[1,5-a]pyridin-6-yl}benzonitrile], not above 50 nM; under `Cc1ccc(-c2c(-c3ccc(C#N)cc3F)cc(OC[C@@H]3CCNC3)c3cncn23)cc1` [Example 5, 3-fluoro-4-{5-(4-methylphenyl)-8-[(3R)-pyrrolidin-3-ylmethoxy]imidazo[1,5-a]pyridin-6-yl}benzonitrile], not above 50 nM. As to `Cc1ccc(-c2c(-c3ccc(C#N)cc3)cc(OC[C@@H]3CCNC3)c3cncn23)c(F)c1` [Example 8, 4-{5-(2-fluoro-4-methylphenyl)-8-[(3R)-pyrrolidin-3-ylmethoxy]imidazo[1,5-a]pyridin-6-yl}benzonitrile], the IC50 was not above 50 nM. Under `CCC1CC=C(c2c(-c3ccc(C#N)cc3)cc(OC[C@@H]3CCNC3)c3cncn23)CC1` (stereo partly drawn) [Example 9, 4-{5-(4-ethylcyclohex-1-en-1-yl)-8-[(3R)-pyrrolidin-3-ylmethoxy]imidazol[1,5-a]pyridin-6-yl}benzonitrile] stands not above 50 nM; under `Cn1ncc2cc(-c3c(-c4ccc(C#N)cc4)cc(OC[C@@H]4CCNC4)c4cncn34)ccc21` [Example 11, 4-{5-(1-methyl-1H-indazol-5-yl)-8-[(3R)-pyrrolidin-3-ylmethoxy]imidazo[1,5-a]pyridin-6-yl}benzonitrile], not above 50 nM. Regarding `CN1C(=O)Cc2cc(-c3c(-c4ccc(C#N)cc4)cc(OC[C@@H]4CCNC4)c4cncn34)ccc21` [Example 12, 4-{5-(1-methyl-2-oxo-2,3-dihydro-1H-indol-5-yl)-8-[(3R)-pyrrolidin-3-ylmethoxy]imidazo-[1,5-a]pyridin-6-yl}benzonitrile], the IC50 was not above 50 nM. With `CN1CCOc2cc(-c3c(-c4ccc(C#N)cc4)cc(OC[C@@H]4CCNC4)c4cncn34)ccc21` [Example 14, 4-{5-(4-methyl-3,4-dihydro-2H-1,4-benzoxazin-7-yl)-8-[(3R)-pyrrolidin-3-ylmethoxy]imidazo[1,5-a]pyridin-6-yl}benzonitrile] the figure was not above 50 nM; with `CN1CCOc2ccc(-c3c(-c4ccc(C#N)cc4)cc(OC[C@@H]4CCNC4)c4cncn34)cc21` [Example 15, 4-{5-(4-methyl-3,4-dihydro-2H-1,4-benzoxazin-6-yl)-8-[(3R)-pyrrolidin-3-ylmethoxy]imidazo[1,5-a]pyridin-6-yl}benzonitrile], not above 50 nM. On to `N#Cc1ccc(-c2cc(OC[C@@H]3CCNC3)c3cncn3c2-c2ccc3c(c2)OCCO3)cc1` [Example 16, 4-{5-(2,3-dihydro-1,4-benzodioxin-6-yl)-8-[(3R)-pyrrolidin-3-ylmethoxy]imidazo[1,5-a]pyridin-6-yl}benzonitrile], for which the IC50 is not above 50 nM. Under `N#Cc1ccc(-c2cc(OC[C@@H]3CCNC3)c3cncn3c2-c2ccc(CCN3CCOCC3)cc2)cc1` [Example 18, 4-{5-[4-(2-morpholin-4-ylethyl)phenyl]-8-[(3R)-pyrrolidin-3-ylmethoxy]imidazo[1,5-a]pyridin-6-yl}benzonitrile] stands not above 50 nM.
